The assay concerns the target T1, BldD (Saccharopolyspora erythraea, UniProt A4FBF9).
T1 sequence (A4FBF9 1-162): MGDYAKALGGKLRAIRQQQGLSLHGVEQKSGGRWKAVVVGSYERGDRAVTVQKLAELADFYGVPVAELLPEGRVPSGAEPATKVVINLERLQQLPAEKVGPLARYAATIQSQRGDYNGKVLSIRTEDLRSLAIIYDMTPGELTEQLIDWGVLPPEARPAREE
In words: isothermal titration calorimetry. The class given is binding.

Turning to `Nc1nc2c(ncn2[C@@H]2O[C@@H]3CO[P@](=O)(O)O[C@H]4[C@@H](O)[C@H](n5cnc6c(=O)[nH]c(N)nc65)O[C@@H]4CO[P@](=O)(O)O[C@H]3[C@H]2O)c(=O)[nH]1` [c-di-GMP], the affinity, expressed as Kd, was 0.57 µM.

The values are drawn from paper PMC10359459 (Nucleic Acids Research, 2023).
